Data taken from ChEMBL document CHEMBL1201862, “PubChem BioAssay data set” (2004).
Blank lines part the entries; values can stand above or below the compound they belong to. Active and inactive are the calls of the source.

Key:
[1] = biological target: SWI/SNF-related matrix-associated actin-dependent regulator of chromatin subfamily A member 2 (Homo sapiens, UniProt P51531); experiment: Luminescence-based cell-based high throughput dose response assay to identify activators of the function of SWI/SNF related, matrix associated, actin dependent regulator of chromatin, subfamily a, member 2 (SMARCA2, BRM).; type: functional
Chain of SWI/SNF-related matrix-associated actin-dependent regulator of chromatin subfamily A member 2 (P51531 whole entry): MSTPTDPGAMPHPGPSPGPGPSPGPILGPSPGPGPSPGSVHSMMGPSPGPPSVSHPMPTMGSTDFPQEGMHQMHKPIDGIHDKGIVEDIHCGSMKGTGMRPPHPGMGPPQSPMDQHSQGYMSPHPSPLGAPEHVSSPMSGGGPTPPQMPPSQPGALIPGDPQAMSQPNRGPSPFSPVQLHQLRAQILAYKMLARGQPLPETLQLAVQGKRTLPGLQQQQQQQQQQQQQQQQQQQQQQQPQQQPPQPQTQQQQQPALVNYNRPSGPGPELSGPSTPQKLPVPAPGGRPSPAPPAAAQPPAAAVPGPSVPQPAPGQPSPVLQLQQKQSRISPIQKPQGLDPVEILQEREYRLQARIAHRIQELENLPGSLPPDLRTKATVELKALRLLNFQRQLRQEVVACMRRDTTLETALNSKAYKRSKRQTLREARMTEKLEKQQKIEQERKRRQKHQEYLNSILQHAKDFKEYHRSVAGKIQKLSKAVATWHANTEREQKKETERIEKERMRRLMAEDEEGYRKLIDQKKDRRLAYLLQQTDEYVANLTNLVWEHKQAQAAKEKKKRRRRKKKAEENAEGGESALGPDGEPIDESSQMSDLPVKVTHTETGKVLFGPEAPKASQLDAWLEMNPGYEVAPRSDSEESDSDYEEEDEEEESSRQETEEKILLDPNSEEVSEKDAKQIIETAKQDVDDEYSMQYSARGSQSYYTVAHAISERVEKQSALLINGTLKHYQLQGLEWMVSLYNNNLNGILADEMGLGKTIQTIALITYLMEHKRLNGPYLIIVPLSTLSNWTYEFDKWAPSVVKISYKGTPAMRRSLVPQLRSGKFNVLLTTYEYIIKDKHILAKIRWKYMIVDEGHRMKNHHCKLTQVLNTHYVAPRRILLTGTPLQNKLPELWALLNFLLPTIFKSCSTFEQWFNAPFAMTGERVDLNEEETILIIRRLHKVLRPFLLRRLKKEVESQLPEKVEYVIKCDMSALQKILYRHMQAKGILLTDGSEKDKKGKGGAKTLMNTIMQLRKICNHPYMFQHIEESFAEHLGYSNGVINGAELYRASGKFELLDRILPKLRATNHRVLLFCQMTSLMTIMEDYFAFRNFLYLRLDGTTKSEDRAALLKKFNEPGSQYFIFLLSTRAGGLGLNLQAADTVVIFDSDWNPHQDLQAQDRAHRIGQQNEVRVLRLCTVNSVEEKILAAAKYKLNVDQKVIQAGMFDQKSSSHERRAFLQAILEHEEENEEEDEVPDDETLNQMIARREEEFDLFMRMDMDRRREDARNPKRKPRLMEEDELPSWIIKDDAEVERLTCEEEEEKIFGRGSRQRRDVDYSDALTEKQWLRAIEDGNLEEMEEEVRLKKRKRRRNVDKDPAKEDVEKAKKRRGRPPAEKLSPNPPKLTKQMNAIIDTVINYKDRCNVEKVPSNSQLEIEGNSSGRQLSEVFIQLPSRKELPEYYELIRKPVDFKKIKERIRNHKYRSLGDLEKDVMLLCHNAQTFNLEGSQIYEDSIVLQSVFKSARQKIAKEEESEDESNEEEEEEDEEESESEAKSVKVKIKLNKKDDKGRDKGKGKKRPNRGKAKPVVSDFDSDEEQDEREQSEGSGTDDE

[2] = Counterscreen for activators of the function of SWI/SNF related, matrix associated, actin dependent regulator of chromatin, subfamily a, member 2 (SMARCA2, BRM): Luminescence-based cell-based high throughput dose response assay to identify non-selective compounds using the VP16 reporter assay.; type: functional
[3] = biological target: E3 ubiquitin-protein ligase UHRF1 (Homo sapiens, UniProt Q96T88); experiment: Counterscreen for inhibitors of 5-meCpG-binding domain protein 2 (MBD2): TRFRET-based biochemical high throughput dose response assay to identify inhibitors of binding of ubiquitin-like with PHD and ring finger domains 1 (UHRF1) to methylated oligonucleotide.
Chain of E3 ubiquitin-protein ligase UHRF1 (Q96T88 whole entry, the tested form may be a part): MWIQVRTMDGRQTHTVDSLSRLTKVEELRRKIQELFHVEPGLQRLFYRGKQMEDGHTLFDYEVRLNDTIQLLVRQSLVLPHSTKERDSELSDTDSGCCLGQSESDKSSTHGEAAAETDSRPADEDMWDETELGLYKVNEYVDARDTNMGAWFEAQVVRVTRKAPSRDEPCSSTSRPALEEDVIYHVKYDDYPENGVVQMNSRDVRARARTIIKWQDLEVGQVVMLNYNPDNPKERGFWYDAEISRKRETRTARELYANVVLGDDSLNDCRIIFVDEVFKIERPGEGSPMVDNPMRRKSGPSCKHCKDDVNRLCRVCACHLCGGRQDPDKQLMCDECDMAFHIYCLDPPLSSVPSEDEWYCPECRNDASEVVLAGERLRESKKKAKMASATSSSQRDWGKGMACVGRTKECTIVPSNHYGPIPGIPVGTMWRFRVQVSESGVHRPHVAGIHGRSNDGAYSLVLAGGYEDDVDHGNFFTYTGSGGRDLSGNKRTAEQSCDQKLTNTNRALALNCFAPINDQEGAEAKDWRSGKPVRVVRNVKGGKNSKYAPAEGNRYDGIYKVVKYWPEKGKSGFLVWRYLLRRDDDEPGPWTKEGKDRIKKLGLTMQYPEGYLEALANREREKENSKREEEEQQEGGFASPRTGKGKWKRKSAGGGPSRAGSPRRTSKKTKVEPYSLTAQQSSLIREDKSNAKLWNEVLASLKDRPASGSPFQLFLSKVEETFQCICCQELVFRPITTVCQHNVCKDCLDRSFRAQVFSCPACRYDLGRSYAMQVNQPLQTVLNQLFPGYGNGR

[4] = biological target: Caspase-6 (Homo sapiens, UniProt P55212); experiment: inhibition of CASP6 peptide cleavage – biochemical, VEID-R110 fluorescence, cherry-pick, dose response (AID 720632)
Chain of Caspase-6 (P55212 24-179 limits assumed): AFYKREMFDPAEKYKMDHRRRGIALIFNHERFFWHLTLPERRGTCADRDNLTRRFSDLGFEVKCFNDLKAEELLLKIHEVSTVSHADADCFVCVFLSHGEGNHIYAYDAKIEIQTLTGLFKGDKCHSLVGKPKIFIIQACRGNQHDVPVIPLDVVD
Chain of Caspase-6 (P55212 194-293 limits assumed): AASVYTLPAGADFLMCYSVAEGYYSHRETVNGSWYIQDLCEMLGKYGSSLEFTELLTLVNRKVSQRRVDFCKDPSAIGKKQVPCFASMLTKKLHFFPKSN

[5] = biological target: Disintegrin and metalloproteinase domain-containing protein 17 (Homo sapiens, UniProt P78536); experiment: exosite inhibitors of ADAM17, dose response, biochemical (AID 743260)
Chain of Disintegrin and metalloproteinase domain-containing protein 17 (P78536 whole entry, the tested form may be a part): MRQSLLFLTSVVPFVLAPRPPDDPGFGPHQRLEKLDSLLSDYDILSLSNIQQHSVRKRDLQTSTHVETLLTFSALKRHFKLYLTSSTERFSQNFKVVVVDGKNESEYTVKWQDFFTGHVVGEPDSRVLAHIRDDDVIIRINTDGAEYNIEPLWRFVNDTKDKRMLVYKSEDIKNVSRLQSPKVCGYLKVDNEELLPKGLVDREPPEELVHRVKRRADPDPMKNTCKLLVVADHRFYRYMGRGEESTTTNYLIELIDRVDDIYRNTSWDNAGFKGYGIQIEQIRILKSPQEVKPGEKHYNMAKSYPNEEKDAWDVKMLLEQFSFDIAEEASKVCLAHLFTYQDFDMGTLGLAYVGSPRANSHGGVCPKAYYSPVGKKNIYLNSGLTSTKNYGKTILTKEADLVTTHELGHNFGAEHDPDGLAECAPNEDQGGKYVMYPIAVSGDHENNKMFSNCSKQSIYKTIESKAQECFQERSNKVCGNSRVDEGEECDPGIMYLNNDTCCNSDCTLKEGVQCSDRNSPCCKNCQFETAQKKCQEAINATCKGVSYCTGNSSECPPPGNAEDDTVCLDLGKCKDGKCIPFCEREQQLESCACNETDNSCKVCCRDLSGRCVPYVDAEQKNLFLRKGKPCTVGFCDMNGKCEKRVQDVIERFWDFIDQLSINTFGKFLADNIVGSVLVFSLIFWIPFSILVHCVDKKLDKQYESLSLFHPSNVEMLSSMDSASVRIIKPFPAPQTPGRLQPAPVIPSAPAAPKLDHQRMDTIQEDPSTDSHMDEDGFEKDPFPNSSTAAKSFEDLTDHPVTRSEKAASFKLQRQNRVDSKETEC

[6] = inhibition of ADAM10 peptide cleavage – biochemical, FRET peptide substrate, recombinant human ADAM10, selectivity assay for ADAM17 exosite inhibitor project, dose response (AID 743259);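 further: ADAM10 enzyme cleaving a FRET peptide substrate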
[7] = A549 lung cell viability reduction – CellTiter-Glo luminescence, cherry-pick, cytotoxicity control, dose response (AID 743484); type: functional, cell-based
[8] = ATP-based viability loss in HEK293T cells – cell-based, CellTiter-Glo luminescence, cherry-picked samples, set 4, cytotoxicity control, dose response (AID 743441); type: functional; settings: HEK293
[9] = biological target: 1-phosphatidylinositol 4,5-bisphosphate phosphodiesterase gamma-1 (Homo sapiens, UniProt P19174); experiment: Counterscreen for inhibitors of phospholipase C isozymes (PLC-B3): Fluorescence-based biochemical high throughput dose response assay to identify inhibitors of phospholipase C isozymes (PLC-gamma1).
[10] = biological target: 1-phosphatidylinositol 4,5-bisphosphate phosphodiesterase beta-3 (Homo sapiens, UniProt Q01970); experiment: Fluorescence-based biochemical high throughput dose response assay to identify inhibitors of phospholipase C isozymes (PLC-B3).
[11] = biological target: fMet-Leu-Phe receptor (Homo sapiens, UniProt P21462); experiment: formyl peptide receptor binders – dose response (AID 519); type: functional
Chain of fMet-Leu-Phe receptor (P21462 whole entry): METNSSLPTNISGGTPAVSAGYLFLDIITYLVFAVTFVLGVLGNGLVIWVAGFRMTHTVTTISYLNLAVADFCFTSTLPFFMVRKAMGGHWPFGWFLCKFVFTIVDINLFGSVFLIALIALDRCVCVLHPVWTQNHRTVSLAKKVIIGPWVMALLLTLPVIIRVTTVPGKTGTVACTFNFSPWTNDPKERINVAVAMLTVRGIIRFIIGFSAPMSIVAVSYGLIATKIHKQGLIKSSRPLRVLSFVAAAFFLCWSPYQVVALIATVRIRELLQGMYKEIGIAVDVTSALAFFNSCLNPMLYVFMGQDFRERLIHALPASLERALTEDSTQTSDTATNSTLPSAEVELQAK

[12] = biological target: Potassium channel subfamily K member 3 (Homo sapiens, UniProt O14649); experiment: inhibition of human KCNK3 channel flux – CHO cells, FluxOR thallium flux, SAR follow-up (AID 652212); type: functional
Chain of Potassium channel subfamily K member 3 (O14649 whole entry): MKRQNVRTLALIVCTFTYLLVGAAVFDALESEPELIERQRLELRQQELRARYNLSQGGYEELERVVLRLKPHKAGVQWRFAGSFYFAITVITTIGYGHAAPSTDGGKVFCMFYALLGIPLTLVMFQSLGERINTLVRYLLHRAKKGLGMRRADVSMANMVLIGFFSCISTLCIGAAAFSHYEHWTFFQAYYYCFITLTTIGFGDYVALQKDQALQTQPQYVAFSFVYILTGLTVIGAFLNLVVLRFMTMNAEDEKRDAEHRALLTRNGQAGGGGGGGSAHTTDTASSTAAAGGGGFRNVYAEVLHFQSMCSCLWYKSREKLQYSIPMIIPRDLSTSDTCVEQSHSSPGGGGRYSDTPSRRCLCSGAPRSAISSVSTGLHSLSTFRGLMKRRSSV

[13] = Luminescence Cell-Based Dose Retest to Confirm Inhibitors of Cancer Stem Cells. [Related pubchem assays (depositor defined):AID2717, AID2721]; type: functional; settings: Homo sapiens
[14] = viability loss in HepG2 hepatoma cells – cell-based, ATP luminescence, cherry-pick, activator set 2, cytotoxicity control, dose response (AID 1053143); type: functional
[15] = biological target: T1, Methionyl-tRNA synthetase, putative (Trypanosoma brucei brucei, UniProt Q38C91); type: functional, Trypanosoma brucei brucei strain 927/4 GUTat10.1
T1 sequence (Q38C91 whole entry): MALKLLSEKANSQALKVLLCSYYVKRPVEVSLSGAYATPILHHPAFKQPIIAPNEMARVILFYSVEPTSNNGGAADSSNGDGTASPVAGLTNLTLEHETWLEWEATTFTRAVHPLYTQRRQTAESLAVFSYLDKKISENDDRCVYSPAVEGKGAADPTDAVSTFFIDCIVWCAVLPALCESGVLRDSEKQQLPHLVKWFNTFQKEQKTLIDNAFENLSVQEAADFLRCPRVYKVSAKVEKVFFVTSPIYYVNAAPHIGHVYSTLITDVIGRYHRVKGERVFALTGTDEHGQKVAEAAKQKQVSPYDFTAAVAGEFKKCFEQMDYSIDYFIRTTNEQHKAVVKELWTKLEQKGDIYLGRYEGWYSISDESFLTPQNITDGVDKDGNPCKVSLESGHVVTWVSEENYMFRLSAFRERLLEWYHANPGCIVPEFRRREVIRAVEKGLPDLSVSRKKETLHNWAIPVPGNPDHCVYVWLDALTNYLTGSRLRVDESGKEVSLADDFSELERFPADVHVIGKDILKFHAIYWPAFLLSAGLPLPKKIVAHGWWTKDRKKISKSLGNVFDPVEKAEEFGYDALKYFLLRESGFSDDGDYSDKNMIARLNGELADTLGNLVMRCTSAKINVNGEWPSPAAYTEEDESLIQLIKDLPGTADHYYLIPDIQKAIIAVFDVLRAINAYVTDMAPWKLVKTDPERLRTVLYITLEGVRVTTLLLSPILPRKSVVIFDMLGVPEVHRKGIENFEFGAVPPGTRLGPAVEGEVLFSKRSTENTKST

[16] = Counterscreen for inhibitors of Trypanosoma brucei methionyl tRNA synthetase (MetRS): Luminescence-based cell-based high throughput dose response assay to identify compounds that are cytotoxic to Jurkat human T lymphocyte cells.; type: functional
[17] = biological target: T1, Methionyl-tRNA synthetase, putative; type: functional, Trypanosoma brucei brucei strain 927/4 GUTat10.1; remark: listed apart in the source
[18] = Late stage counterscreen for inhibitors of Trypanosoma brucei methionyl tRNA synthetase (MetRS): Luminescence-based cell-based high throughput dose response assay to identify compounds that are cytotoxic to Jurkat human T lymphocyte cells.; type: functional

Structure (SMILES): COc1cccc2nc3c(C(=O)NCCN(C)C)cccc3cc12
EC50 [1]: > 10.1 µM (inactive) | EC50 [2]: > 91.2 µM (inactive) | IC50 [3]: > 43.8 µM (inactive)

Structure (SMILES): Cc1cc(C2(O)C(=O)Nc3ccccc32)ccc1F (stereo not drawn)
AC50 [4]: 13 µM (active)

IC50 [5]: > 69.5 µM (inactive)
Structure (SMILES): CC(C)C(NS(=O)(=O)c1c(Cl)cccc1Cl)C(=O)OCC(=O)c1c[nH]c2ccccc12 (stereo not drawn)
IC50 [6]: > 7.72 µM (active)

Structure (SMILES): C=CCNC(=O)c1ccccc1NC(=O)c1ccc(Cl)c(S(=O)(=O)Nc2cccc(C)c2C)c1
AC50 [7]: 30.1 µM (active) | AC50 [8]: 36.7 µM (active)

IC50 [9]: > 122 µM (inactive) | IC50 [10]: > 122 µM (inactive)
Structure (SMILES): Cc1ccc(NC(=O)c2nn(C34CC5CC(CC(C5)C3)C4)cc2[N+](=O)[O-])cc1

Ki [11]: 3.4 µM (active)
Structure (SMILES): COc1ccc(OC)c(C2C(C(=O)c3ccccc3)=C(O)C(=O)N2Cc2ccco2)c1 (stereo not drawn)

IC50 [12]: 0.046 µM (active)
Structure (SMILES): O=C(Nc1cccc(NC(=O)c2cccc(F)c2)c1)c1ccccc1

Structure (SMILES): Cc1ccc(C(=O)Nc2ncc(Cc3ccccc3)s2)o1
AC50 [13]: 0.319 µM (active) | AC50 [14]: 12 µM (active)

Structure (SMILES): CN(CC(=O)Nc1ccc(Cl)cc1)C(=O)c1ccc(-n2cncn2)c([N+](=O)[O-])c1
IC50 [15]: 2 µM (active) | IC50 [16]: 83.3 µM (inactive) | IC50 [17]: 1.18 µM (active) | IC50 [18]: > 83.3 µM (inactive)
